Like-named read-outs stand apart in the source and are kept apart here.
Columns and labels:
Format in all cases: cell-based
in vitro = conditions: human
Method: Huh7 hepatoblastoma cells were seeded onto 96-well plates and incubated at 37° C. with 5% CO2 overnight. The plates were seeded at a cell concentration that will yield >70% confluent monolayers in each well after overnight incubation. Eight 3-fold serial dilutions of compounds were diluted in test media (MEM supplemented with 2% FBS and 50 μg/mL gentamicin). The highest test compound concentration was 50 μg/mL. 100 μL of each concentration was added to 5 test wells on the 96-well plate. Of these 5 test wells, 3 wells of each dilution were infected with dengue virus type 2, diluted in test media (approximately 2000 CCID50 per well for an MOI of 0.07). Test medium (100 μL) with no virus was added to 2 wells to represent the uninfected cytotoxicity controls. Six additional infected wells received 100 μL media alone as untreated virus controls. Further, 100 μL of media alone was added to 6 uninfected wells to serve as uninfected, untreated controls. Cultures were incubated at 37° C.+5% CO2 until >80% CPE is observed. After cytopathic effect (CPE) is observed microscopically, 0.011% neutral red dye was added for approximately 2 hours. The neutral red dye was removed and wells were rinsed once with PBS to remove residual, unincorporated dye. A 50:50 Sorensen citrate buffer/ethanol solution was added and incubated at room temperature for >30 minutes with agitation, followed by measurement of neutral red dye using a spectrophotometer at 540 nm. The resulting optical density measurement was converted to percent signal of the infected, untreated cell control normalizing to virus controls. EC50 and CC50 values were determined by linear regression analysis.

HCV Replicon 2A = HCV Replicon 2A EC50 (Example Q); conditions: Hepatitis C virus, 72 h, read-out: HCV Replicon 2A EC50 (nM) (per Ex. Q)
Method: (§1) Compounds were serially diluted in ten steps of 1:3 dilutions in 384-well plates. All serial dilutions were performed in four replicates per compound within the same 384-well plate. An HCV protease inhibitor ITMN-191 at […] was added as a control of 100% inhibition of HCV replication while puromycin at 10 mM was included as a control of 100% cytotoxicity. To each well of a black polystyrene 384-well plate (Greiner Bio-one, Monroe, NC), 90 μL of cell culture medium (without Geneticin) containing 2000 suspended HCV replicon cells was added with a Biotek μFlow workstation. For compound transfer into cell culture plates, 0.4 μL of compound solution from the compound serial dilution plate was transferred to the cell culture plate on a Biomek FX workstation. The DMSO concentration in the final assay wells was 0.44%. The plates were incubated for 3 days at 37° C. with 5% CO2 and 85% humidity. The HCV replicon assay was a multiplex assay, able to assess both cytotoxicity and antireplicon activity from the same well. The CC50 assay was performed first. The media in the 384-well cell culture plate was aspirated, and the wells were washed four times with 100 μL of PBS each, using a Biotek ELX405 plate washer. A volume of 50 μL of a solution containing 400 nM calcein AM (Anaspec, Fremont, CA) in 1×PBS was added to each well of the plate with a Biotek μFlow workstation. The plate was incubated for 30 min at room temperature before the fluorescence signal (excitation 490 nm, emission 520 nm) was measured with a Perkin-Elmer Envision plate reader. The EC50 assay was performed in the same wells as the CC50 assay. The calcein-PBS solution in the 384-well cell culture plate was aspirated with a Biotek ELX405 plate washer. A volume of 20 μL of Dual-Glo luciferase buffer (Promega, Madison, WI) was added to each well of the plate with a Biotek μFlow Workstation. The plate was incubated for 10 min at room temperature. A volume of 20 μL of a solution containing a 1:100 mixture of Dual-Glo Stop & Glo substrate (Promega, Madison, WI) and Dual-Glo Stop & Glo buffer (Promega, Madison, WI) was added to each well of the plate with a Biotek μFlow Workstation. The plate was then incubated at room temperature for 10 min before the luminescence signal was measured with a Perkin-Elmer Envision Plate Reader.

[1] = HCV Replicon 2A CC50, calcein AM (Example Q); conditions: calcein AM fluorescence, read-out: HCV Replicon 2A CC50 (nM) (per Ex. Q)
Method: as §1

[2] = HCV replicon cells, 3 days, Dual-Glo luciferase

Molecule `CCCCCCCCCCCCCCCCCCOC[C@H](COP(=O)(O)OC[C@@]1(C#N)O[C@@H](c2ccc3c(N)ncnn23)[C@H](O)[C@@H]1O)OCc1ccc(C#N)c(-n2cncn2)c1` [Compound 16, ((2R,3S,4R,5S)-5-(4-aminopyrrolo[2,1-f][1,2,4]triazin-7-yl)-2-cyano-3,4-dihydroxytetrahydrofuran-2-yl)methyl ((R)-2-((4-cyano-3-(1H-1,2,4-triazol-1-yl)benzyl)oxy)-3-(octadecyloxy)propyl) hydrogen phosphate] has a CC50 (in vitro) of 24 µM.

With `CCCCCCCCCCCCCCCCCCOC[C@H](COP(=O)(O)OC[C@@]1(C#N)O[C@@H](c2ccc3c(N)ncnn23)[C@H](O)[C@@H]1O)OCc1ccc(C#N)nc1` [Compound 19, ((2R,3S,4R,5S)-5-(4-aminopyrrolo[2,1-f][1,2,4]triazin-7-yl)-2-cyano-3,4-dihydroxytetrahydrofuran-2-yl)methyl ((R)-2-((6-cyanopyridin-3-yl)methoxy)-3-(octadecyloxy)propyl) hydrogen phosphate] the CC50 (in vitro) was 25 µM.

`CCCCCCCCCCCCCCCCCCOC[C@H](COP(=O)(O)OC[C@@]1(C#N)O[C@@H](c2ccc3c(N)ncnn23)[C@H](O)[C@@H]1O)Oc1cccc(C#N)n1` [Compound 21, ((2R,3S,4R,5S)-5-(4-aminopyrrolo[2,1-f][1,2,4]triazin-7-yl)-2-cyano-3,4-dihydroxytetrahydrofuran-2-yl)methyl ((R)-2-((6-cyanopyridin-2-yl)oxy)-3-(octadecyloxy)propyl) hydrogen phosphate] showed an EC50 (HCV Replicon 2A; [2]) of 19200 nM and a CC50 at 3 days ([1]; HCV replicon cells (2A)) greater than 44400 nM.

With `CCCCCCCCCCCCCCCCCCOC[C@H](COP(=O)(O)OC[C@@]1(C#N)O[C@@H](c2ccc3c(N)ncnn23)[C@H](O)[C@@H]1O)Oc1ccc(C#N)c(OC(C)C)c1` [Compound 23, ((2R,3S,4R,5S)-5-(4-aminopyrrolo[2,1-f][1,2,4]triazin-7-yl)-2-cyano-3,4-dihydroxytetrahydrofuran-2-yl)methyl ((R)-2-(4-cyano-3-isopropoxyphenoxy)-3-(octadecyloxy)propyl) hydrogen phosphate] the CC50 (in vitro) was 26 µM.

For `CCCCCCCCCCCCCCCCCCC[C@H](COP(=O)(O)OC[C@@]1(C#N)O[C@@H](c2ccc3c(N)ncnn23)[C@H](O)[C@@H]1O)OCc1cc(F)cc(C#N)c1` [Compound 25, ((2R,3S,4R,5S)-5-(4-aminopyrrolo[2,1-f][1,2,4]triazin-7-yl)-2-cyano-3,4-dihydroxytetrahydrofuran-2-yl)methyl ((R)-2-((3-cyano-5-fluorobenzyl)oxy)henicosyl) hydrogen phosphate], the CC50 (in vitro) was 13 µM.

Molecule `CCCCCCCCCCCCCCCCCCC[C@H](COP(=O)(O)OC[C@@]1(C#N)O[C@@H](c2ccc3c(N)ncnn23)[C@H](O)[C@@H]1O)OCc1ccc(C#N)c(OC(C)C)c1` [Compound 28, ((2R,3S,4R,5S)-5-(4-aminopyrrolo[2,1-f][1,2,4]triazin-7-yl)-2-cyano-3,4-dihydroxytetrahydrofuran-2-yl)methyl ((R)-2-((4-cyano-3-isopropoxybenzyl)oxy)henicosyl) hydrogen phosphate] has a CC50 (in vitro) of 19 µM.

For `CCCCCCCCCCCCCCCCCCCC[C@H](COP(=O)(O)OC[C@@]1(C#N)O[C@@H](c2ccc3c(N)ncnn23)[C@H](O)[C@@H]1O)OCc1cc(F)cc(C#N)c1` [Compound 34, ((2R,3S,4R)-5-(4-aminopyrrolo[2,1-f][1,2,4]triazin-7-yl)-2-cyano-3,4-dihydroxytetrahydrofuran-2-yl)methyl ((R)-2-((3-cyano-5-fluorobenzyl)oxy)docosyl) hydrogen phosphate], the CC50 (in vitro) was 15 µM.

Molecule `CCCCCCCCCCCCCCCCCCC[C@H](COP(=O)(O)OC[C@@]1(C#N)O[C@@H](c2ccc3c(N)ncnn23)[C@H](O)[C@@H]1O)Oc1ccc(C#N)c(OC(C)C)c1` [Compound 38, ((2R,3S,4R,5S)-5-(4-aminopyrrolo[2,1-f][1,2,4]triazin-7-yl)-2-cyano-3,4-dihydroxytetrahydrofuran-2-yl)methyl ((R)-2-(4-cyano-3-isopropoxyphenoxy)henicosyl) hydrogen phosphate] has a CC50 (in vitro) of 5.8 µM.

Work on `CCCCCCCCCCCCCCCCCCC[C@H](COP(=O)(O)OC[C@@]1(C#N)O[C@@H](c2ccc3c(N)ncnn23)[C@H](O)[C@@H]1O)Oc1cc(OC)c(C#N)c(OC)c1` [Compound 39, ((2R,3S,4R,5S)-5-(4-aminopyrrolo[2,1-f][1,2,4]triazin-7-yl)-2-cyano-3,4-dihydroxytetrahydrofuran-2-yl)methyl ((R)-2-(4-cyano-3,5-dimethoxyphenoxy)henicosyl) hydrogen phosphate] yielded a CC50 (in vitro) of 14 µM.

In the case of `CCCCCCCCCCCCCCCCCCOCC(COc1cc(F)cc(C#N)c1)COP(=O)(O)OC[C@@]1(C#N)O[C@@H](c2ccc3c(N)ncnn23)[C@H](O)[C@@H]1O` (stereo partly drawn) [Compound 43, ((2R,3S,4R,5S)-5-(4-aminopyrrolo[2,1-f][1,2,4]triazin-7-yl)-2-cyano-3,4-dihydroxytetrahydrofuran-2-yl)methyl (3-(3-cyano-5-fluorophenoxy)-2-((octadecyloxy)methyl)propyl) hydrogen phosphate], the CC50 (in vitro) is reported as 14 µM.

Molecule `CCCCCCCCCCCCCCCCCCOC[C@H](COP(=O)(O)OC[C@@]1(C#N)O[C@@H](c2ccc3c(N)ncnn23)[C@H](O)[C@@H]1O)OCc1cccc(C#N)n1` [Compound 68, ((2R,3S,4R)-5-(4-aminopyrrolo[2,1-f][1,2,4]triazin-7-yl)-2-cyano-3,4-dihydroxytetrahydrofuran-2-yl)methyl ((R)-2-((6-cyanopyridin-2-yl)methoxy)-3-(octadecyloxy)propyl) hydrogen phosphate] has an EC50 (HCV Replicon 2A) of 15200 nM and a CC50 at 3 days ([1]; HCV replicon cells) greater than 44400 nM.

For `CCCCCCCCCCCCCCOC[C@H](COP(=O)(O)OC[C@@]1(C#N)O[C@@H](c2ccc3c(N)ncnn23)[C@H](O)[C@@H]1O)OCc1ccc(C#N)cc1F` [Compound 75, ((2R,3S,4R,5S)-5-(4-aminopyrrolo[2,1-f][1,2,4]triazin-7-yl)-2-cyano-3,4-dihydroxytetrahydrofuran-2-yl)methyl ((R)-2-((4-cyano-2-fluorobenzyl)oxy)-3-(tetradecyloxy)propyl) hydrogen phosphate], the CC50 (in vitro) was greater than 50 µM.

With `CCCCCCCCCCCCCCCC[C@H](COP(=O)(O)OC[C@@]1(C#N)O[C@@H](c2ccc3c(N)ncnn23)[C@H](O)[C@@H]1O)OCc1cc(F)cc(C#N)c1` [Compound 78, ((2R,3S,4R,5S)-5-(4-aminopyrrolo[2,1-f][1,2,4]triazin-7-yl)-2-cyano-3,4-dihydroxytetrahydrofuran-2-yl)methyl ((R)-2-((3-cyano-5-fluorobenzyl)oxy)octadecyl) hydrogen phosphate] the EC50 (HCV Replicon 2A; [2]) was 18400 nM and the CC50 at 3 days ([1]; HCV replicon cells (2A)) was 33800 nM.

Molecule `CCCCCCCCCCCCCCCC[C@@H](COP(=O)(O)OC[C@@]1(C#N)O[C@@H](c2ccc3c(N)ncnn23)[C@H](O)[C@@H]1O)OCc1cc(F)cc(C#N)c1` [Compound 79, ((2R,3S,4R,5S)-5-(4-aminopyrrolo[2,1-f][1,2,4]triazin-7-yl)-2-cyano-3,4-dihydroxytetrahydrofuran-2-yl)methyl ((S)-2-((3-cyano-5-fluorobenzyl)oxy)octadecyl) hydrogen phosphate] has an EC50 (HCV Replicon 2A; [2]) of 20000 nM and a CC50 at 3 days ([1]; HCV replicon cells (2A)) of 30200 nM.

From patent US20250034182A1, “PHOSPHOLIPID COMPOUNDS AND METHODS OF MAKING AND USING THE SAME” (priority 2021, published 2025)
